Assay results: patent US10807970B2 (priority 2016, dated 2020)

Target: human σ1 receptor (Homo sapiens, UniProt Q99720)
Assay: Human σ1 receptor radioligand assay ([3H](+)-pentazocine, transfected HEK-293 membranes)
Type: binding
Parameters: μ and σ1 dual binding: key to the marks not given beside the values
Details: one class symbol for both Ki-σ1 (human σ1 receptor, A1) and Ki-μ (human μ-opioid receptor, A2)
Summary of the method: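 Membranes from HEK-293 cells transfected with human σ1 receptor (7 μg) incubated with 5 nM [3H](+)-pentazocine in 50 mM Tris-HCl pH 8, 120 min at 37° C. Non-specific binding defined with 10 μM haloperidol. Bound radioligand separated by filtration, washed with ice-cold 10 mM Tris-HCl pH 7.4, and counted by scintillation.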

Chain of human σ1 receptor (Q99720 whole entry): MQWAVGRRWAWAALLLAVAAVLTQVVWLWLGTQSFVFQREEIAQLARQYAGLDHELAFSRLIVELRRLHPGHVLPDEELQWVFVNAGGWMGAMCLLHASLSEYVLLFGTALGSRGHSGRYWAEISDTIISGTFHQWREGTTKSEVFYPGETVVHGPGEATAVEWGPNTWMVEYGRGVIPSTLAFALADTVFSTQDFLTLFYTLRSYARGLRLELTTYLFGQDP

Row | SMILES | μ and σ1 dual binding
1 | CC1(C)CC(C(O)c2ccccn2)(N2CCN(Cc3ccccc3)CC2)CCO1 (stereo not shown) [Example 129, (4-(4-benzylpiperazin-1-yl)-2,2-dimethyltetrahydro-2H-pyran-4-yl)(pyridin-2-yl)methanol] | ++
2 | OC(c1ccccn1)C1(C2CCN(Cc3ccccc3)CC2)CCOCC1 (stereo not shown) [Example 130, (4-(1-benzylpiperidin-4-yl)tetrahydro-2H-pyran-4-yl)(pyridin-2-yl)methanol] | ++
3 | CC1(C)CC(C2CCN(Cc3ccccc3)CC2)(C(O)c2ccccn2)CCO1 (stereo not shown) [Example 131, (4-(1-benzylpiperidin-4-yl)-2,2-dimethyltetrahydro-2H-pyran-4-yl)(pyridin-2-yl)methanol] | ++
4 | CC(C)OCCN1CCN([C@@]2(C(=O)c3ccccn3)CCOC(C)(C)C2)CC1 [Example 134, (S)-(4-(4-(2-isopropoxyethyl)piperazin-1-yl)-2,2-dimethyltetrahydro-2H-pyran-4-yl)(pyridin-2-yl)methanone] | ++
5 | CC(C)COCCN1CCN([C@@]2(C(=O)c3ccccn3)CCOC(C)(C)C2)CC1 [Example 136, (S)-(4-(4-(2-isobutoxyethyl)piperazin-1-yl)-2,2-dimethyltetrahydro-2H-pyran-4-yl)(pyridin-2-yl)methanone] | ++
6 | CN(Cc1ccccc1)[C@H]1CCN([C@]2(C(=O)c3ccccn3)CCOC(C)(C)C2)C1 [Example 141, ((R)-4-((S)-3-(benzyl(methyl)amino)pyrrolidin-1-yl)-2,2-dimethyltetrahydro-2H-pyran-4-yl)(pyridin-2-yl)methanone] | ++
7 | CN(Cc1ccccc1)[C@@H]1CCN([C@@]2(C(=O)c3ccccn3)CCOC(C)(C)C2)C1 [Example 143] | ++
8 | CC(C)OCCN(C)[C@H]1CCN([C@]2(C(=O)c3ccccn3)CCOC(C)(C)C2)C1 [Example 146, ((R)-4-((S)-3-((2-isopropoxyethyl)(methyl)amino)pyrrolidin-1-yl)-2,2-dimethyltetrahydro-2H-pyran-4-yl)(pyridin-2-yl)methanone] | ++
9 | CC(C)OCCN(C)[C@H]1CCN([C@@]2(C(=O)c3ccccn3)CCOC(C)(C)C2)C1 [Example 147, ((S)-4-((S)-3-((2-isopropoxyethyl)(methyl)amino)pyrrolidin-1-yl)-2,2-dimethyltetrahydro-2H-pyran-4-yl)(pyridin-2-yl)methanone] | ++
10 | CC(C)CCN(C)[C@@H]1CCN([C@]2(C(=O)c3ccccn3)CCOC(C)(C)C2)C1 [Example 149, ((R)-4-((R)-3-(isopentyl(methyl)amino)pyrrolidin-1-yl)-2,2-dimethyltetrahydro-2H-pyran-4-yl)(pyridin-2-yl)methanone] | ++
11 | C[C@H]1C[C@@](C(=O)c2ccccn2)(C2CCN(Cc3ccccc3)CC2)CCO1 [Example 152] | ++
12 | C[C@H]1C[C@@](C(=O)c2ccccn2)(N2CCN(Cc3ccccc3)CC2)CCO1 [Example 155, ((2S,4S)-4-(4-benzylpiperazin-1-yl)-2-methyltetrahydro-2H-pyran-4-yl)(pyridin-2-yl)methanone] | ++
13 | CC1(N2CCN(Cc3ccccc3)CC2)CCOCC1 [Example 156, 1-Benzyl-4-(4-methyltetrahydro-2H-pyran-4-yl)piperazine] | ++
14 | CC[C@@]1(N2CCN(CCOC(C)C)CC2)CCO[C@@H](C)C1 [Example 158, 1-((2S,4R)-4-ethyl-2-methyltetrahydro-2H-pyran-4-yl)-4-(2-isopropoxyethyl)piperazine] | ++
15 | CC[C@]1(N2CCN(CCC(C)C)CC2)CCO[C@@H](C)C1 [Example 159, 1-((2S,4S)-4-ethyl-2-methyltetrahydro-2H-pyran-4-yl)-4-isopentylpiperazine] | ++
16 | CC[C@@]1(N2CCN(CCC(C)C)CC2)CCO[C@@H](C)C1 [Example 160, 1-((2S,4R)-4-ethyl-2-methyltetrahydro-2H-pyran-4-yl)-4-isopentylpiperazine] | ++
17 | CC(C)CCN1CCN([C@@]2(C)CCO[C@@H](C)C2)CC1 [Example 161, 1-((2S,4S)-2,4-dimethyltetrahydro-2H-pyran-4-yl)-4-isopentylpiperazine] | ++
18 | CC(C)CCN1CCN([C@]2(C)CCO[C@@H](C)C2)CC1 [Example 162, 1-((2S,4R)-2,4-dimethyltetrahydro-2H-pyran-4-yl)-4-isopentylpiperazine] | ++
19 | CC[C@]1(N2CCN(Cc3ccccc3)CC2)CCO[C@@H](C)C1 [Example 163, 1-benzyl-4-((2S,4S)-4-ethyl-2-methyltetrahydro-2H-pyran-4-yl)piperazine] | ++

Same assay, conditions: one class symbol for both Ki-σ1 (human σ1 receptor, A1) and Ki-μ (human μ-opioid receptor, A2); read-out: μ and σ1 dual binding

Row | SMILES | Ki [nM]
20 | CC1(C)CC(C(=O)c2ccccn2)(N2CCN(CCC(F)(F)F)CC2)CCO1 (stereo not shown) [Example 127, (2,2-dimethyl-4-(4-(3,3,3-trifluoropropyl)piperazin-1-yl)tetrahydro-2H-pyran-4-yl)(pyridin-2-yl)methanone] | > 500
21 | CC(C)OCCN1CCN([C@]2(C(=O)c3ccccn3)CCOC(C)(C)C2)CC1 [Example 135, (R)-(4-(4-(2-isopropoxyethyl)piperazin-1-yl)-2,2-dimethyltetrahydro-2H-pyran-4-yl)(pyridin-2-yl)methanone] | < 500
22 | CC(C)OCCN1CCN([C@]2(C(=O)c3ccccn3)CCOC(C)(C)C2)CC1 [Example 139, (R)-(4-(4-(2-isopropoxyethyl)piperazin-1-yl)-2,2-dimethyltetrahydro-2H-pyran-4-yl)(pyridin-2-yl)methanone] | > 500
23 | CC(C)OCCN(C)[C@@H]1CCN([C@]2(C(=O)c3ccccn3)CCOC(C)(C)C2)C1 [Example 144, ((R)-4-((R)-3-((2-isopropoxyethyl)(methyl)amino)pyrrolidin-1-yl)-2,2-dimethyltetrahydro-2H-pyran-4-yl)(pyridin-2-yl)methanone] | < 500
24 | CC(C)OCCN(C)[C@@H]1CCN([C@@]2(C(=O)c3ccccn3)CCOC(C)(C)C2)C1 [Example 145, ((S)-4-((R)-3-((2-isopropoxyethyl)(methyl)amino)pyrrolidin-1-yl)-2,2-dimethyltetrahydro-2H-pyran-4-yl)(pyridin-2-yl)methanone] | > 500
25 | C[C@@H]1C[C@](C(=O)c2ccccn2)(N2CCN(Cc3ccccc3)CC2)CCO1 [Example 154, ((2R,4R)-4-(4-benzylpiperazin-1-yl)-2-methyltetrahydro-2H-pyran-4-yl)(pyridin-2-yl)methanone] | < 500

Same assay, conditions: μ and σ1 dual binding, one class symbol for both Ki-σ1 (human σ1 receptor, A1) and Ki-μ (human μ-opioid receptor, A2)

Row | SMILES | Ki [nM]
26 | CC1(C)CC(C(=O)c2ccccn2)(N2CCN(CCC3CC3)CC2)CCO1 (stereo not shown) [Example 128, (4-(4-(2-cyclopropylethyl)piperazin-1-yl)-2,2-dimethyltetrahydro-2H-pyran-4-yl)(pyridin-2-yl)methanone] | < 500
27 | CC(C)CCN1CCN([C@@]2(C(=O)c3ccccn3)CCOC(C)(C)C2)CC1 [Example 132, (S)-(4-(4-isopentylpiperazin-1-yl)-2,2-dimethyltetrahydro-2H-pyran-4-yl)(pyridin-2-yl)methanone] | < 500
28 | CC(C)CCN1CCN([C@]2(C(=O)c3ccccn3)CCOC(C)(C)C2)CC1 [Example 133, (R)-(4-(4-isopentylpiperazin-1-yl)-2,2-dimethyltetrahydro-2H-pyran-4-yl)(pyridin-2-yl)methanone] | < 100
29 | CC(C)COCCN1CCN([C@]2(C(=O)c3ccccn3)CCOC(C)(C)C2)CC1 [Example 137, (R)-(4-(4-(2-isobutoxyethyl)piperazin-1-yl)-2,2-dimethyltetrahydro-2H-pyran-4-yl)(pyridin-2-yl)methanone] | < 500
30 | CN(Cc1ccccc1)[C@H]1CCN(C2(C(=O)c3ccccn3)CCOC(C)(C)C2)C1 (stereo partly drawn) [Example 138, (4-((S)-3-(benzyl(methyl)amino)pyrrolidin-1-yl)-2,2-dimethyltetrahydro-2H-pyran-4-yl)(pyridin-2-yl)methanone] | > 500
31 | CN(Cc1ccccc1)[C@H]1CCN([C@@]2(C(=O)c3ccccn3)CCOC(C)(C)C2)C1 [Example 140, ((S)-4-((S)-3-(benzyl(methyl)amino)pyrrolidin-1-yl)-2,2-dimethyltetrahydro-2H-pyran-4-yl)(pyridin-2-yl)methanone] | < 500
32 | CN(Cc1ccccc1)[C@@H]1CCN([C@]2(C(=O)c3ccccn3)CCOC(C)(C)C2)C1 [Example 142] | < 100
33 | CC(C)CCN(C)[C@@H]1CCN([C@@]2(C(=O)c3ccccn3)CCOC(C)(C)C2)C1 [Example 148, ((S)-4-((R)-3-(isopentyl(methyl)amino)pyrrolidin-1-yl)-2,2-dimethyltetrahydro-2H-pyran-4-yl)(pyridin-2-yl)methanone] | < 500
34 | CC(C)CCN(C)[C@H]1CCN([C@]2(C(=O)c3ccccn3)CCOC(C)(C)C2)C1 [Example 150, ((R)-4-((S)-3-(isopentyl(methyl)amino)pyrrolidin-1-yl)-2,2-dimethyltetrahydro-2H-pyran-4-yl)(pyridin-2-yl)methanone] | < 500
35 | CC(C)CCN(C)[C@H]1CCN([C@@]2(C(=O)c3ccccn3)CCOC(C)(C)C2)C1 [Example 151, ((S)-4-((S)-3-(isopentyl(methyl)amino)pyrrolidin-1-yl)-2,2-dimethyltetrahydro-2H-pyran-4-yl)(pyridin-2-yl)methanone] | < 500
36 | C[C@H]1C[C@](C(=O)c2ccccn2)(C2CCN(Cc3ccccc3)CC2)CCO1 [Example 153] | < 500
37 | CC[C@]1(N2CCN(CCOC(C)C)CC2)CCO[C@@H](C)C1 [Example 157, 1-((2S,4S)-4-ethyl-2-methyltetrahydro-2H-pyran-4-yl)-4-(2-isopropoxyethyl)piperazine] | < 100
